Values quoted from earlier work, collected in US20230002631A1, “WATER-WASHABLE COMPOSITIONS FOR USE IN 3D PRINTING” (BASF SE, priority 2019, published 2023).
Read-outs that look alike come from different tables or passages of the source. Values belong to the compound of their own block, whether it stands above or below them.

Details: for Water solubility (g/L at 20° C.): slightly water-soluble reactive diluents (B1b); for Amount that dissolves in water: room temperature

Water solubility (g/L at 20° C.) (20° C.): <10 g/L
Compound: C=C(C)C(=O)OCCCO [hydroxypropyl methacrylate]

Water solubility (20° C.): 100 g/L at 68° F. (20° C.)
Compound: C=CN1CCCC1=O [N-Vinyl-pyrrolidone (NVP), N-Vinyl-pyrrolidone]

Water solubility (temperature not given): 40 g/L
Compound: C=CN1CCCCCC1=O [N-Vinyl-caprolactam (NVC), N-Vinyl-caprolactam]

Amount that dissolves in water: 13.4 g/L
Compound: C=CC(=O)OCCOCCOCC [2-(2-ethoxyethoxy)ethyl acrylate(EOEOA), 2-(2-ethoxyethoxy)ethyl acrylate]

Water solubility (stated in words): Water soluble
Compound: Polyethylene glycol (400) diacrylate

Second part, the compound before the results:

Compound: C=C(C)C(=O)OCCOCCOCCOC(=O)C(=C)C [triethylene glycol dimethacrylate]
Water solubility (g/L at 20° C.) (20° C.): 3.6 g/L

Compound: C=C(C)C(=O)OCCO [hydroxyethyl methacrylate]
Amount that dissolves in water: 11.8 g/L

Compound: C=Cn1ccnc1 [N-Vinyl-imidazole (VIM), N-Vinyl-imidazole]
Water solubility (stated in words): Fully miscible

Compound: C=C(C)C(=O)OCCOCCOCCOCCOC(=O)C(=C)C [Tetraethylene glycol dimethacrylate]
Water solubility (temperature not given): 12.6 g/L

Compound: C=CC(=O)OCCO [hydroxyethyl acrylate]
Water solubility (25° C.): 100 g/L

Compound: C=CC(=O)OCC1(CC)COCOC1 [cyclic trimethylolpropane formal acrylate]
Water solubility (g/L at 20° C.) (20° C.): 9.3 g/L

Compound: Poly(ethylene glycol) diacrylate
Water solubility (temperature not given): 21 g/L

Compound: C=CC(=O)OCC(C)OCC(C)OCC(C)OC(=O)C=C (centres unmarked) [tripropylene glycol diacrylate]
Water solubility (g/L at 20° C.) (20° C.): 4.0 g/L

Compound: C=CC(=O)OCCCO [hydroxypropyl acrylate]
Water solubility (25° C.): 100 g/L

Compound: C=CC(=O)OCCOC(=O)NCCCC [2-[[(butylamino)carbonyl]oxy]ethyl acrylate]
Water solubility (g/L at 20° C.) (20° C.): 5.0 g/L

Compound: C=CC(=O)OCCOCCOCCOC(=O)C=C [Triethylene glycol diacrylate (TEGDA), Triethylene glycol diacrylate]
Water solubility (temperature not given): 18 g/L

Compound: Polyethylene glycol (200) diacrylate
Water solubility (stated in words): Water soluble
